Reference: US20110105408A1, “THERAPEUTIC PEPTIDES” (INTER-K PTY LIMITED, priority 2008, published 2011)
Entries after “also recorded” stand apart in the source; their conditions may differ.

What was measured:
[1] = tested on: phospho-ERK in HT29 cells; assay: Phospho-ERK ELISA (FACE ERK1/2 kit) in HT29 cells; assay type: cell-based, human
Description: HT29 cells were harvested using 0.5% trypsin EDTA (Invitrogen) and 5000 cells were resuspended into 200 μL, and added to each well of a clear NUNC tissue culture treated 96 well plate (NUNC). Cells were seeded in DMEM media (Invitrogen) supplemented with 10% v/v foetal calf serum (FCS, Invitrogen), 1% L-Glutamine (Invitrogen) and 2% 1M HEPES buffer solution (Invitrogen). Cells were then incubated overnight at 37° C. The following day, the growth medium was replaced with 100 μL of serum-free DMEM supplemented with 1% L-glutamine and 2% 1M HEPES buffer solution, and incubated for a further 24 hours at 37° C. Dendrimers were added to test wells in serum free medium to provide final concentrations of the dendrimers ranging from 0.1-20 μLA. The total volume of each well was 200 uL, and cells were incubated at 37° C. for times ranging from 5 minutes to 4 hours. In those studies in which cells were subjected to stimulation by serum, 22 μL FCS (10% v/v final concentration) was added to wells for the final ten minutes of the culture period at 37° C. Serum-free media (SFM) only (22 μL) was added to non-serum stimulated cells.
Phospho-ERK levels were determined using the FACE ERK1/2 ELISA kit according to the manufacturer's instructions (Active Motif, kit obtained from Australian Biosearch, WA, Australia). Briefly, media was replaced and cells fixed with 4% formaldehyde in PBS, and after a 1 hour with antibody blocking buffer (supplied), the primary phospho-ERK or total-ERK antibody was added and incubated overnight at 4° C. Antibody dilution buffer only was added to control test wells containing no primary antibody. The next day, HRP-conjugated secondary antibody was added for one hour before plates were developed and the absorbance measured at 450 nm using a Labsystems Multiskan EX microplate reader (Labsystems, Thermo Labsystems, UK).
The effectiveness of the peptide dendrimer IK248 described in Example 2 in inhibiting growth factor mediated activation of ERK in HT29 cancer cells (i.e., (FCS stimulated) compared to various agents comprising the polypeptide RSKAKNPLYR (SEQ ID No. 6) coupled to different peptide facilitator moieties for facilitating passage of the polypeptide across the plasma cell membrane into the cytosol of the cells was evaluated. Phospho-ERK levels in the cells following treatment with 5 μM IK248 (Dend 8) for 1 hour or polypeptide-facilitator moiety agents (each at 5 μM for the same duration) were measured essentially as described in Example 1.3. The facilitator moieties utilised were the signal peptide fragment AAVALLPAVLLALLA (SEQ ID No. 16), the TAT-G peptide GRKKRRQRRRPPQG (SEQ ID No. 17), a modified pentratin sequence Tr-Pen RRQKWKKG (SEQ ID No. 18), and the penetratin peptide RQIKIWFQNRRMKWKKCS—SC (SEQ ID No. 19) wherein S—S indicates a disulphide bridge between the adjacent cysteine residues.
The peptide RSKAKNPLYR (SEQ ID. No. 6) or peptide dendrimers of the type illustrated in FIG. 3 comprising lysine branching units presenting either 8 (IK248) or 10 (IK248B) monomer units of the peptide RSKAKNPLYR (SEQ ID No. 6) were utilised in this study. Phospho-ERK levels were evaluated by ELISA utilising an Active Motif FACE ERK1/2 ELISA kit (Australian Biosearch, WA, Australia) as described in Example 1.3.

HT29 colon cancer cells = assay: Cell proliferation (MTT) assay, HT29 cells; assay type: cell-based, human
Description: Single cell suspensions of viable trypsinised cells were seeded into 96-well tissue culture plates at a density of 2×10^3 cells per well in a volume of 100 μl of a suitable culture media with foetal calf serum (FCS) (e.g., Dulbecco's Modified Eagles Medium (DMEM), with 10% v/v FCS, glutamine, Hepes, and antibiotics). A set of triplicate wells was prepared for each concentration of the peptide dendrimer being tested. Additional sample wells containing untreated cells or media alone were set up in each treatment plate and processed in parallel as reference controls. A zero-time plate of untreated cells and media-alone wells was simultaneously prepared and an MTT assay carried out on this plate at the time of test peptide dendrimer addition to treatment plates. All plates were cultured for 24 hours before addition of the test dendrimer. To prepare the MTT solution 100 mg of MTT (3-(4,5-dimethylthiazolyl-2)-2,5-diphenyltetrazolium bromide) (Cat #. M-128, Sigma, St Louis Mo.), is mixed with 20 ml of PBS at pH 7.4. The resulting solution is filter sterilized (0.2 μM syringe filter) and stored at 4° C. protected from light until use. MTT substrate is cleaved in growing cells to yield a water insoluble salt. After solubilisation of the salt crystals, a coloured product is produced the measurement of which allows quantitation of the proliferative activity of the cultured cells.
Appropriate concentrations of the test dendrimer were prepared by dilution of freshly prepared sterile 1 mM stock solutions into cell culture media to give a final well volume of 200 μl containing 10% v/v FCS. The zero-plate was processed by addition of MTT at this time. Cell culture was continued for a further 24 or 48 hours before addition of 20 μl of MTT in PBS (5 mg/ml, 0.2 um filter sterilised). The MTT cell proliferation assay measures cell proliferation rate and, in instances where cell viability is compromised, the assay indicates a comparative reduction in cell viability. After a 3 hour incubation in the presence of MTT (5% CO2 in air at 37° C.), plates were centifuged at 450 g for 5 minutes, supernatant removed by gentle suction and precipitated tetrazolium salt resuspended into 150 μl DMSO:glycine (0.1 M glycine, 0.1 M NaCl pH 10.5) (6:1 v/v) solution. Plates were gently vortexed to complete solubilisation of crystalline material and absorbance was read at 540-550 nm using a microplate reader. Sample data were processed to determine the comparative growth of treated samples relative to untreated controls.
HT29 cells were cultured for 48 hours in the presence of selected dendrimers and proliferation of the cells was assessed by MTT assay essentially as described in Example 1.2. The results were calculated as percentage proliferation of control cells (not treated with dendrimer).

Q: For `CC(C)C[C@H](NC(=O)[C@@H]1CCCN1C(=O)[C@H](CC(N)=O)NC(=O)[C@H](CCCCN)NC(=O)[C@H](C)NC(=O)[C@H](CCCCN)NC(=O)[C@H](CO)NC(=O)[C@@H](N)CCCNC(=N)N)C(=O)N[C@@H](Cc1ccc(O)cc1)C(=O)N[C@@H](CCCNC(=N)N)C(=O)NCCCC[C@H](NC(=O)[C@H](CCCCNC(=O)[C@H](CCCCNC(=O)[C@H](CCCNC(=N)N)NC(=O)[C@H](Cc1ccc(O)cc1)NC(=O)[C@H](CC(C)C)NC(=O)[C@@H]1CCCN1C(=O)[C@H](CC(N)=O)NC(=O)[C@H](CCCCN)NC(=O)[C@H](C)NC(=O)[C@H](CCCCN)NC(=O)[C@H](CO)NC(=O)[C@@H](N)CCCNC(=N)N)NC(=O)[C@H](CCCNC(=N)N)NC(=O)[C@H](Cc1ccc(O)cc1)NC(=O)[C@H](CC(C)C)NC(=O)[C@@H]1CCCN1C(=O)[C@H](CC(N)=O)NC(=O)[C@H](CCCCN)NC(=O)[C@H](C)NC(=O)[C@H](CCCCN)NC(=O)[C@H](CO)NC(=O)[C@@H](N)CCCNC(=N)N)NC(=O)[C@H](CCCCNC(=O)[C@H](CCCNC(=N)N)NC(=O)[C@H](Cc1ccc(O)cc1)NC(=O)[C@H](CC(C)C)NC(=O)[C@@H]1CCCN1C(=O)[C@H](CC(N)=O)NC(=O)[C@H](CCCCN)NC(=O)[C@H](C)NC(=O)[C@H](CCCCN)NC(=O)[C@H](CO)NC(=O)[C@@H](N)CCCNC(=N)N)NC(=O)[C@H](CCCNC(=N)N)NC(=O)[C@H](Cc1ccc(O)cc1)NC(=O)[C@H](CC(C)C)NC(=O)[C@@H]1CCCN1C(=O)[C@H](CC(N)=O)NC(=O)[C@H](CCCCN)NC(=O)[C@H](C)NC(=O)[C@H](CCCCN)NC(=O)[C@H](CO)NC(=O)[C@@H](N)CCCNC(=N)N)C(=O)NCCCC[C@H](NC(=O)[C@H](CCCCNC(=O)[C@H](CCCNC(=N)N)NC(=O)[C@H](Cc1ccc(O)cc1)NC(=O)[C@H](CC(C)C)NC(=O)[C@@H]1CCCN1C(=O)[C@H](CC(N)=O)NC(=O)[C@H](CCCCN)NC(=O)[C@H](C)NC(=O)[C@H](CCCCN)NC(=O)[C@H](CO)NC(=O)[C@@H](N)CCCNC(=N)N)NC(=O)[C@H](CCCCNC(=O)[C@H](CCCCNC(=O)[C@H](CCCNC(=N)N)NC(=O)[C@H](Cc1ccc(O)cc1)NC(=O)[C@H](CC(C)C)NC(=O)[C@@H]1CCCN1C(=O)[C@H](CC(N)=O)NC(=O)[C@H](CCCCN)NC(=O)[C@H](C)NC(=O)[C@H](CCCCN)NC(=O)[C@H](CO)NC(=O)[C@@H](N)CCCNC(=N)N)NC(=O)[C@H](CCCNC(=N)N)NC(=O)[C@H](Cc1ccc(O)cc1)NC(=O)[C@H](CC(C)C)NC(=O)[C@@H]1CCCN1C(=O)[C@H](CC(N)=O)NC(=O)[C@H](CCCCN)NC(=O)[C@H](C)NC(=O)[C@H](CCCCN)NC(=O)[C@H](CO)NC(=O)[C@@H](N)CCCNC(=N)N)NC(=O)[C@H](CCCCNC(=O)[C@H](CCCNC(=N)N)NC(=O)[C@H](Cc1ccc(O)cc1)NC(=O)[C@H](CC(C)C)NC(=O)[C@@H]1CCCN1C(=O)[C@H](CC(N)=O)NC(=O)[C@H](CCCCN)NC(=O)[C@H](C)NC(=O)[C@H](CCCCN)NC(=O)[C@H](CO)NC(=O)[C@@H](N)CCCNC(=N)N)NC(=O)[C@H](CCCNC(=N)N)NC(=O)[C@H](Cc1ccc(O)cc1)NC(=O)[C@H](CC(C)C)NC(=O)[C@@H]1CCCN1C(=O)[C@H](CC(N)=O)NC(=O)[C@H](CCCCN)NC(=O)[C@H](C)NC(=O)[C@H](CCCCN)NC(=O)[C@H](CO)NC(=O)[C@@H](N)CCCNC(=N)N)C(=O)NCCC(N)=O` [IK248B], which “phospho-ERK levels relative to control cells, dose response” value ([1]; HI FCS stimulated HT29 cells) is on record?
A: decreased relative to control cells with progressively increasing dosages

Q: And the “ERK activity (as indicated by phospho-ERK levels)” value ([1]; HI FCS stimulated HT29 cells, 10 μM (data not shown))?
A: entirely inhibited

Q: And the phospho-ERK levels ([1]; HI FCS stimulated HT29 cells, dose of 5 μM)?
A: almost totally abrogated

Q: What about the “phospho-ERK levels in HT29 cells compared to normal skin fibroblast cells (selectivity for cancer cells)” value ([1]; data not shown) of the same molecule?
A: significantly reduced compared to normal skin fibroblast cells

Q: And the “basal phospho-ERK level relative to control cells” value ([1]; not FCS stimulated, 0.1, 0.5, 1 and 5 μM, 4 hr incubation)?
A: did not stimulate basal phospho-ERK levels

Q: And the “inhibition of proliferation of HT29 cells (MTT)” value (HT29 colon cancer cells; 48 hours culture with dendrimer)?
A: proliferation of the cells was inhibited; also recorded: more effective than dendrimer IK248

Q: And the “dendrimer concentration required for total kill” value (HT29 colon cancer cells; HT29 cells, 48 hours, MTT)?
A: 10 µM
